{
  "source": "patent US20230310573A1",
  "about": "“Stabilized Vaccine Compositions” (priority 2020, published 2023)",
  "key": {"[1]": {"target": "ectodomain of H1N1 A/Brisbane/59/2007 (SEQ ID NO: 7) (Influenza A virus, UniProt P03452)", "experiment": "Heat stress of influenza A HA ectodomain, trimer and monomer content by analytical SEC", "format": "physicochemical", "conditions": "6 weeks at 40 degree Celsius; 1:6 HA trimer:compound ratio"}, "[2]": {"target": "T1, UFV170091 (HA of B/Massachussetts/2/12) (Influenza B virus, UniProt P03460)", "T1 construct": "Ectodomain of wild type HA of B/Massachussetts/2/12 fused to a foldon domain at the C-terminus; His-tag (C); made in house; host or cells: ExpiCHO", "experiment": "Melting temperature (Tm50) of influenza B HA trimer by DSF", "format": "physicochemical", "conditions": "1:6 HA trimer:compound ratio"}, "[3]": {"target": "UFV180933 (HA of B/Brisbane/60/08) (Influenza B virus, UniProt P03460)", "format": "cell-based", "conditions": "1:90 HA trimer:compound ratio"}, "[4]": {"target": "T2, UFV180300 (HA of B/Colorado/06/2017) (Influenza B virus, UniProt P03460)", "T2 construct": "SortA (sortase) tag (C); His-tag (C); made in house; host or cells: ExpiCHO", "experiment": "Melting temperature (Tm50) of influenza B HA trimer by DSF", "format": "physicochemical", "conditions": "1:6 HA trimer:compound ratio"}},
  "data": [
    {"compound": "N#CCCCn1c(CN2C(=O)C3(CN(C(=O)C4(O)CC4)C3)c3ccccc32)cc2cc(Cl)ccc21", "note": "[Compound XV, 4-[5-chloro-2-[[1-(1-hydroxycyclopropanecarbonyl)-2′-oxo-spiro[azetidine-3,3′-indoline]-1′-yl]methyl]indol-1-yl]butanenitrile]", "values": [
      {"measurement": "trimer content after heat stress (SEC)", "setting": "[1]", "value": "preserved the trimer content"}
    ]},
    {"compound": "c1ccc(CN2CCC(Nc3ccccc3)(c3ccccc3)CC2)cc1", "note": "[XXVII, 1-benzyl-N,4-diphenyl-piperidin-4-amine]", "values": [
      {"measurement": "increase of the Tm (DSF)", "setting": "[2]", "value": 0.5, "unit": "°C"},
      {"measurement": "monomer and trimer content in supernatant (SEC)", "setting": "[3]", "value": "hardly monomer and mostly trimer"},
      {"measurement": "increase of the Tm (DSF)", "setting": "[4]", "value": 1, "unit": "°C"}
    ]}
  ]
}
